From patent publication US9556135B2, “Amino-dihydrothiazine and amino-dioxido dihydrothiazine compounds as beta-secretase antagonists and methods of use” (Amgen Inc., priority 2012, dated 2017)
Read-outs that look alike come from different tables or passages of the source.

Key:
Cathepsin D (Cat D) = Cathepsin D (Cat D) (Homo sapiens (Human), UniProt P07339); test: In vitro enzymatic Cathepsin D (Cat D) FRET assay; assay type: biochemical; details: read-out: CatD IC50
Protocol: In Vitro Enzymatic Cathepsin D (Cat D) FRET (Fluorescence Resonance Energy Transfer) Assay Recombinant Cat D was expressed in CHO cells. […] The Cat D enzyme (9 nM) is pre-incubated for one hour with inhibitors, typically in about 1 uL of DMSO according to a serial dilution, is added thereto. […] The FRET assay is terminated with by addition of Tris buffer, which raises the pH to neutrality, and the fluorescence is determined. The FRET substrate is a peptide with commercially available fluorophore and quencher, on opposite sides of the BACE cleavage site. The Cat D substrate peptide sequence is based on sequence #1 of Table 1 from Gulnik et al. […] Where available, the in-vitro Cat D FRET assay data for each of the Examples, conducted by the first procedure, is provided.

[1] = molecular target: Beta Secretase enzyme (BACE1) (Homo sapiens (Human), UniProt P56817); test: In vitro enzymatic BACE FRET assay; assay type: biochemical
Protocol: In Vitro Enzymatic BACE FRET (Fluorescence Resonance Energy Transfer) Assay (Enzyme Assay Data in the Example Tables I and II)
The assay buffer used in this screen is 0.05 M acetate, pH 4.2, 10% DMSO final, 100 uM genapol (which is a nonionic detergent, below its Critical Micelle Concentration). […] This assay is effectively started by the addition of FRET substrate (50 nM) and the combination is incubated for one hour. The FRET assay is terminated with by addition of Tris buffer, which raises the pH to neutrality, and the fluorescence is determined. The FRET substrate is a peptide with commercially available fluorophore and quencher, on opposite sides of the BACE cleavage site. Proteolytic cleavage of the FRET substrate releases quenching of fluorescence (excitation […] and […]).

[2] = test system: Aβ40 in conditioned medium of cells stably expressing Amyloid Precursor Protein (APP); test: In vitro BACE cell-based assay (HEK cell assay), Aβ40 sandwich ELISA
Protocol: In Vitro BACE Cell-Based Assay
The cell-based assay measures inhibition or reduction of Aβ40 in conditioned medium of test compound treated cells expressing amyloid precursor protein.
Cells stably expressing Amyloid Precursor Protein (APP) were plated at a density of 40K cells/well in 96 well plates (Costar). The cells were cultivated for 24 hours at 37° C. and 5% CO2 in DMEM supplemented with 10% FBS. The test compounds were then added to cells in 10-point dose response concentrations with the starting concentration being either 100 μM or 10 μM. The compounds were diluted from stock solutions in DMSO and the final DMSO concentration of the test compounds on cells was 0.1%. After 24 h of incubation with the test compounds the supernatant conditioned media was collected and the Aβ 40 levels were determined using a sandwich ELISA. The IC50 of the compound was calculated from the percent of control or percent inhibition of Aβ 40 as a function of the concentration of the test compound.
The sandwich ELISA to detect Aβ 40 was performed in 96 well microtiter plates, which were pre-treated with goat anti-rabbit IgG (Pierce). The capture and detecting antibody pair that were used to detect Aβ 40 from cell supernatants were affinity purified pAb40 (Biosource) and biotinylated 6E10 (Signet Labs Inc.), respectively. The optimal concentration for the pAb40 antibody was 3 μg/ml in Superblock/TBS (Pierce) that was supplemented with 0.05% Tween 20 (Sigma).
Cellular supernatants were incubated with the capture antibody for 3 h at 4° C., followed by 3 wash steps in TBS-tween (0.05%). The detecting antibody incubation was for 2 h at 4° C., again followed by the wash steps as described previously. The final readout of the ELISA is Time-Resolved Fluorescence (counts per minute) using Delfia reagents Streptavidin-Europium and Enhancement solutions (Perkin Elmer) and the Victor 2 multilabel counter (Perkin Elmer).

Abeta 40 = test: In vivo inhibition of beta-secretase: Abeta 40 reduction in CSF and brain of the rat; details: 10 mpk (unless otherwise noted), after 4 hrs
Source text: In Vivo Inhibition of Beta-Secretase
Several animal models, including mouse, rat, dog, and monkey, may be used to screen for inhibition of beta-secretase activity in vivo following administration of a test compound sample. Animals used in this invention can be wild type, transgenic, or gene knockout animals. […] One to twenty-four hours following the administration of compound, animals are sacrificed, and brains as well as cerebrospinal fluid (CSF) and plasma are removed for analysis of A-beta levels and drug or test compound concentrations (Dovey et al., 2001, Journal of Neurochemistry, 76, 173-181) Beginning at time 0, animals are administered by oral gavage, or other means of delivery such as intravenous injection, an inhibitory test compound of up to 100 mg/kg in a standard, conventional formulation, such as 2% hydroxypropyl methylcellulose, 1% Tween80. A separate group of animals receive 2% hydroxypropyl methylcellulose, 1% Tween80 alone, containing no test compound, and serve as a vehicle-control group. At the end of the test period, animals are sacrificed and brain tissues, plasma or cerebrospinal fluid are collected. Brains are either homogenized in 10 volumes (w/v) of 0.2% diethylamine (DEA) in 50 mM NaCl (Best et al., 2005, Journal of Pharmacology and Experimental Therapeutics, 313, 902-908), or in 10 volumes of 0.5% TritonX-100 in Tris-buffered saline (pH at about 7.6). Homogenates are centrifuged at 355,000 g, 4° C. for 30 minutes. CSF or brain supernatants are then analyzed for the presence of A-beta peptide by specific sandwich ELISA assays based on ECL (Electrochemiluminescence) technology. For example, rat Abeta40 is measured using biotinylated-4G8 (Signet) as a capture antibody and Fab40 (an in-house antibody specific to the C-terminal of Abeta40) as a detection antibody.
Actual vehicles used: Oral: 2% HPMC, 1% Tween80, pH 2.2

Chain of Beta Secretase enzyme (BACE1) (P56817 46-501): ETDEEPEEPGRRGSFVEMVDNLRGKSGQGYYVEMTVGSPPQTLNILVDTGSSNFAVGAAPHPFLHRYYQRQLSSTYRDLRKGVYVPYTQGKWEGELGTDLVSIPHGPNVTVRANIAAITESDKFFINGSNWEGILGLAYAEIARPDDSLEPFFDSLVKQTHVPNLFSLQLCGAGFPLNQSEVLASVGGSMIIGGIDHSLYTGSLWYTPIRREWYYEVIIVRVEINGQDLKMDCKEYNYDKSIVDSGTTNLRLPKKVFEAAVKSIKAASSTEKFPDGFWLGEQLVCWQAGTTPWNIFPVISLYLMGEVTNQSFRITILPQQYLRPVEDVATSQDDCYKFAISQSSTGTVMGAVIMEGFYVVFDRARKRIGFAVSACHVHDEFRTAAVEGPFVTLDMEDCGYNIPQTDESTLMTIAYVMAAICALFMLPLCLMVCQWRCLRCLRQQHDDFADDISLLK
Chain of Cathepsin D (Cat D) (P07339 65-412, species assumed): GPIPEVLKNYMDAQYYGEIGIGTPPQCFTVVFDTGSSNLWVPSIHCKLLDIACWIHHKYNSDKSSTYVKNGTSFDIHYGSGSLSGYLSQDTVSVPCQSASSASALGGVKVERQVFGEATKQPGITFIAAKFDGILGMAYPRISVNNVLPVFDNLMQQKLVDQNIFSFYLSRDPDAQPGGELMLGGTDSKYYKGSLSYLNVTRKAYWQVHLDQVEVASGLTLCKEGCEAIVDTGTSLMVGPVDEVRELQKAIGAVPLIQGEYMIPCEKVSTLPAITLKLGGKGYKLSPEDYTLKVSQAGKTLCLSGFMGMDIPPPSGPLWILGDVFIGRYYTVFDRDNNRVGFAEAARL

Compound: COc1cnc(C(=O)Nc2ccc(F)c([C@]3(C)CSCC(N)=N3)c2)cn1 [Example 43, (R)—N-(3-(5-amino-3-methyl-3,6-dihydro-2H-1,4-thiazin-3-yl)-4-fluorophenyl)-5-methoxypyrazine-2-carboxamide]
- IC50 (Cathepsin D (Cat D)): > 400 µM

Compound: COc1cnc2c(Nc3cnc(F)c([C@]4(C)CS(=O)(=O)C(C)(C)C(N)=N4)c3)nccc2c1 [Example 66, N-(5-((3R)-5-amino-3,6,6-trimethyl-1,1-dioxido-3,6-dihydro-2H-1,4-thiazin-3-yl)-6-fluoro-3-pyridinyl)-3-methoxy-1,7-naphthyridin-8-amine]
- IC50 [1]: 0.0043 µM
- IC50 (Cathepsin D (Cat D)): 101 µM

Compound: CC1(C)C(N)=N[C@](C)(c2cc(Nc3nccc4cc(Cl)cnc34)cc(F)c2F)CS1(=O)=O [Example 69, (R)-5-Amino-3-(5-((3-chloro-1,7-naphthyridin-8-yl)amino)-2,3-difluorophenyl)-3,6,6-trimethyl-3,6-dihydro-2H-1,4-thiazine 1,1-dioxide]
- IC50 [1]: 0.0014 µM
- IC50 (Cathepsin D (Cat D)): 11.3 µM

Compound: C[C@]1(c2cc(NC(=O)c3cnc(C(F)F)cn3)ccc2F)N=C(N)C2(CCC2)S(=O)(=O)[C@@H]1F [Example 140, N-(3-((6S,7R)-9-amino-6-fluoro-7-methyl-5,5-dioxido-5-thia-8-azaspiro[3.5]non-8-en-7-yl)-4-fluorophenyl)-5-(difluoromethyl)pyrazine-2-carboxamide]
- IC50 (Cathepsin D (Cat D)): 400 µM

Compound: CC1(C)C(N)=NC2(c3cc(Br)ccc3F)COCC2S1(=O)=O (stereo not drawn) [Example 185, 3-amino-4a-(5-bromo-2-fluorophenyl)-2,2-dimethyl-4a,5,7,7a-tetrahydro-2H-furo[3,4-b][1,4]thiazine 1,1-dioxide]
- IC50 ([1]; average IC50, enzyme assay): 30.2 µM
- IC50 (Cathepsin D (Cat D)): 322 µM

Compound: CC1(C)C(N)=N[C@@]2(c3cc(Br)ccc3F)COC[C@H]2S1(=O)=O [Example 185a, (4aS,7aS)-3-amino-4a-(5-bromo-2-fluorophenyl)-2,2-dimethyl-4a,5,7,7a-tetrahydro-2H-furo[3,4-b][1,4]thiazine 1,1-dioxide]
- IC50 ([1]; average IC50, enzyme assay): 4.83 µM
- IC50 (Cathepsin D (Cat D)): 70.9 µM

Compound: CC1(C)C(N)=N[C@]2(c3cc(Br)ccc3F)COC[C@@H]2S1(=O)=O [Example 185b, (4aR,7aR)-3-amino-4a-(5-bromo-2-fluorophenyl)-2,2-dimethyl-4a,5,7,7a-tetrahydro-2H-furo[3,4-b][1,4]thiazine 1,1-dioxide]
- IC50 ([1]; average IC50, enzyme assay): > 40 µM
- IC50 (Cathepsin D (Cat D)): > 400 µM

Compound: CC1(C)C(N)=N[C@@]2(c3cc(N)ccc3F)COC[C@H]2S1(=O)=O [Example 185c, (4aS,7aS)-3-amino-4a-(5-amino-2-fluorophenyl)-2,2-dimethyl-4a,5,7,7a-tetrahydro-2H-furo[3,4-b][1,4]thiazine 1,1-dioxide]
- IC50 ([1]; average IC50, enzyme assay): > 40 µM
- IC50 (Cathepsin D (Cat D); Cathepsin D FRET assay): > 400 µM

Compound: CC1(C)C(N)=N[C@]2(c3cc(N)ccc3F)COC[C@@H]2S1(=O)=O [Example 185d, (4aR,7aR)-3-amino-4a-(5-amino-2-fluorophenyl)-2,2-dimethyl-4a,5,7,7a-tetrahydro-2H-furo[3,4-b][1,4]thiazine 1,1-dioxide]
- IC50 ([1]; average IC50, enzyme assay): 3.83 µM
- IC50 (Cathepsin D (Cat D); Cathepsin D FRET assay): 152 µM

Compound: Cc1ccc(Oc2ccc(F)c([C@]3(C)CS(=O)(=O)C(C)(C)C(N)=N3)c2)nc1 [Example 265, (5R)-5-(2-fluoro-5-((5-methyl-2-pyridinyl)oxy)phenyl)-2,2,5-3-amine 1,1-dioxide trimethyl-5,6-dihydro-2H-1,4-thiazin-3-amine 1,1-dioxide]
- IC50 ([2]; average IC50): 0.804 µM

Compound: CC1(C)C(N)=N[C@](C)(c2cc(NC(=O)c3cc4ccccc4cn3)ccc2F)CS1(=O)=O [Example 343]
- IC50 ([2]; average IC50, cell assay (Table II)): 0.0107 µM

Compound: CC1(C)C(N)=N[C@](C)(c2cc(Nc3ncnc4cc(C#N)cnc34)cnc2F)CS1(=O)=O [Example 384]
- IC50 ([2]; average IC50): 0.0239 µM

Compound: Cc1cc(Cl)cnc1C(=O)Nc1ccc(F)c([C@]2(CF)CS(=O)(=O)C(C)(C)C(N)=N2)c1 [Example 408, N-(3-((3S)-5-amino-3-(fluoromethyl)-6,6-dimethyl-1,1-dioxido-3,6-dihydro-2H-1,4-thiazin-3-yl)-4-fluorophenyl)-5-chloro-3-methyl-2-pyridinecarboxamide]
- % reduction of rat CSF levels at 10 pmk (Abeta 40): 62%
- % reduction of rat brain levels at 10 mpk (Abeta 40): 37%

Compound: Cc1cc(OC(F)F)cnc1C(=O)Nc1ccc(F)c([C@]2(CF)CS(=O)(=O)C3(CCC3)C(N)=N2)c1 [Example 412, N-(3-((7S)-9-amino-7-(fluoromethyl)-5,5-dioxido-5-thia-8-azaspiro[3.5]non-8-en-7-yl)-4-fluorophenyl)-5-(difluoromethoxy)-3-methyl-2-pyridinecarboxamide]
- % reduction of rat CSF levels at 10 pmk (Abeta 40): 52%
- % reduction of rat brain levels at 10 mpk (Abeta 40): 33%

Compound: CC1(C)C(N)=N[C@](C)(c2cc(Nc3ccc4c(c3)OC(F)(F)O4)cnc2F)CS1(=O)=O [Example 414, (5R)-5-(5-((2,2-difluoro-1,3-benzodioxo1-5-yl)amino)-2-fluoro-3-pyridinyl)-2,2,5-trimethyl-5,6-dihydro-2H-1,4-thiazin-3-amine 1,1-dioxide]
- IC50 ([2]; average IC50): 2.53 µM

Compound: COc1cnc2c(Nc3ccc(F)c([C@]4(CF)CS(=O)(=O)C(C)(C)C(N)=N4)c3)nccc2n1 [Example 447, N-(3-((3S)-5-amino-3-(fluoromethyl)-6,6-dimethyl-1,1-dioxido-3,6-dihydro-2H-1,4-thiazin-3-yl)-4-fluorophenyl)-2-methoxypyrido[3,4-b]pyrazin-5-amine]
- % reduction of rat CSF levels at 10 pmk (Abeta 40): 62%
- % reduction of rat brain levels at 10 mpk (Abeta 40): 42%

Compound: COc1ccc(C(=O)Nc2ccc(F)c([C@]3(CF)CS(=O)(=O)C(C)(C)C(N)=N3)c2)nc1 [Example 457, N-(3-((3S)-5-amino-3-(fluoromethyl)-6,6-dimethyl-1,1-dioxido-3,6-dihydro-2H-1,4-thiazin-3-yl)-4-fluorophenyl)-5-methoxy-2-pyridinecarboxamide]
- % reduction of rat CSF levels at 10 pmk (Abeta 40): 67%
- % reduction of rat brain levels at 10 mpk (Abeta 40): 50%

Compound: COCc1cc(Cl)cnc1C(=O)Nc1ccc(F)c([C@]2(CF)CS(=O)(=O)C(C)(C)C(N)=N2)c1 [Example 458, N-(3-((3S)-5-amino-3-(fluoromethyl)-6,6-dimethyl-1,1-dioxido-3,6-dihydro-2H-1,4-thiazin-3-yl)-4-fluorophenyl)-5-chloro-3-(methoxymethyl)-2-pyridinecarboxamide]
- % reduction of rat CSF levels at 10 pmk (Abeta 40): 35%
- % reduction of rat brain levels at 10 mpk (Abeta 40): 8%
